Laboratory results as given in ChEMBL document CHEMBL4627289, “Design, synthesis and evaluation of unnatural peptides as T1R2/T1R3 PAMs” (Bioorg Med Chem Lett, 2020).

Molecular target: T1R2/T1R3 (Homo sapiens) (UniProt Q8TE23+Q7RTX0)
Experiment: Positive allosteric modulation of human TIR2/TIR3 expressed in PEAKrapid cells assessed as potentiation of sucrose-induced intracellular calcium influx by measuring sucrose EC50 at 30 uM measured for 120 secs by fluorescence based assay relative to FEMA4774
Type: functional, cell-based

SMILES | Efficacy
CC(C)(CC(=O)Nc1cncc(C(=O)O)c1N)NC(=O)[C@@H](NC(=O)[C@@H](N)C1CCCCC1)C1CCCCC1 | 92%
CC(C)(CC(=O)Nc1cncc(C(=O)O)c1N)NC(=O)C[C@@H]1CCNC1 | 56%
CC(C)(CC(=O)Nc1cncc(C(=O)O)c1N)NC(=O)CC1CCCCC1 | 85%
CCCCCCCC/C=C\CCCCCCCC(=O)NC(C)(C)CC(=O)Nc1cncc(C(=O)O)c1N | 55%
CC(C)(CC(=O)Nc1cncc(C(=O)O)c1N)NC(=O)[C@H]1CC[C@H](N)CC1 | 55%
CCCCCCCCCCCC(=O)NC(C)(C)CC(=O)Nc1cncc(C(=O)O)c1N | 50%
CC[C@H](C)[C@H](NC(=O)[C@@H](N)C1CCCCC1)C(=O)NC(C)(C)CC(=O)Nc1cncc(C(=O)O)c1N | 76%
CCCCCCC(=O)NC(C)(C)CC(=O)Nc1cncc(C(=O)O)c1N | 59%
CC(C)(CC(=O)Nc1cncc(C(=O)O)c1N)NC(=O)c1ccc(N)cc1 | 56%
CC[C@H](C)[C@H](NC(=O)[C@@H](NC(=O)OC(C)(C)C)C1CCCCC1)C(=O)NC(C)(C)CC(=O)Nc1cncc(C(=O)O)c1N | 84%
CC(C)C[C@H](N)C(=O)NC(C)(C)CC(=O)Nc1cncc(C(=O)O)c1N | 73%
CC(C)C[C@H](NC(=O)[C@@H](NC(=O)OC(C)(C)C)C1CCCCC1)C(=O)NC(C)(C)CC(=O)Nc1cncc(C(=O)O)c1N | 85%
CC(C)(CC(=O)Nc1cncc(C(=O)O)c1N)NC(=O)[C@@H](N)c1ccccc1 | 61%
CC(C)(CC(=O)Nc1cncc(C(=O)O)c1N)NC(=O)[C@@H](N)C1CCCCC1 | 96%
CC(C)(CC(=O)Nc1cncc(C(=O)O)c1N)NC(=O)C(C)(C)C | 58%
CC(C)(CC(=O)Nc1cncc(C(=O)O)c1N)NC(=O)CC[C@@H](N)Cc1ccccc1 | 54%
CC(C)(CC(=O)Nc1cncc(C(=O)O)c1N)NC(=O)CCC1CCCCC1 | 65%
CC(C)C[C@H](NC(=O)[C@@H](N)C1CCCCC1)C(=O)NC(C)(C)CC(=O)Nc1cncc(C(=O)O)c1N | 77%
CC(C)(CC(=O)Nc1cncc(C(=O)O)c1N)NC(=O)CC1CCCC1 | 79%
CC(C)(CC(=O)Nc1cncc(C(=O)O)c1N)NC(=O)C1CCCCC1 | 71%

SMILES | Efficacy
CC(C)C(=O)NC(C)(C)CC(=O)Nc1cncc(C(=O)O)c1N | 54%
CC(C)(CC(=O)Nc1cncc(C(=O)O)c1N)NC(=O)C1CCNCC1 | 56%
CC(C)(CC(=O)Nc1cncc(C(=O)O)c1N)NC(=O)[C@@H](N)CC1CCCCC1 | 57%
CCCCCCCC(=O)NC(C)(C)CC(=O)Nc1cncc(C(=O)O)c1N | 57%
CC(C)[C@H](N)C(=O)NC(C)(C)CC(=O)Nc1cncc(C(=O)O)c1N | 61%
CC(C)CC(=O)NC(C)(C)CC(=O)Nc1cncc(C(=O)O)c1N | 60%
CC(C)(CC(=O)Nc1cncc(C(=O)O)c1N)NC(=O)c1ccccc1 | 50%
CC(C)(CC(=O)Nc1cncc(C(=O)O)c1N)NC(=O)C[C@H]1CCNC1 | 52%
CC(C)(CC(=O)Nc1cncc(C(=O)O)c1N)NC(=O)C1(c2ccccc2)CC1 | 54%
CC(C)(CC(=O)Nc1cncc(C(=O)O)c1N)NC(=O)CC1(CN)CCCCC1 | 80%
CC(C)(CC(=O)Nc1cncc(C(=O)O)c1N)NC(=O)[C@@H]1CCC[C@H](N)C1 | 57%
CC(C)(CC(=O)Nc1cncc(C(=O)O)c1N)NC(=O)C1CCNC1 (centres undefined) | 55%
CCCCCC(=O)NC(C)(C)CC(=O)Nc1cncc(C(=O)O)c1N | 65%
CC(C)(CC(=O)Nc1cncc(C(=O)O)c1N)NC(=O)C1(N)CCCCC1 | 59%
CC(C)(CC(=O)Nc1cncc(C(=O)O)c1N)NC(=O)c1cccc(N)c1 | 56%
CC(C)(CC(=O)Nc1cncc(C(=O)O)c1N)NC(=O)c1cccc2c1CCCC2 | 73%
CC(C)(CC(=O)Nc1cncc(C(=O)O)c1N)NC(=O)[C@H]1CC[C@@H](N)CC1 | 58%
CC(C)(C)CC(=O)NC(C)(C)CC(=O)Nc1cncc(C(=O)O)c1N | 64%
CC(C)(CC(=O)Nc1cncc(C(=O)O)c1N)NC(=O)[C@H](N)C1CCCCC1 | 59%
